By IC50 is commonly meant the concentration at which inhibition is half-maximal. Low readings indicate greater potency, high ones weaker potency. For orientation: inhibition means the drop in the measured response relative to a control, in per cent.

The results in this text go back to patent US8173700B2, “Salts of substituted allophanates and their use in drugs” (Gruenenthal GmbH, priority 2005, dated 2012).

The structures appear in SMILES notation.

For one assay, the target named is T1, hVR1 (Homo sapiens, UniProt Q8NER1).
T1 construct: expressed in transfected cells; host or cells: CHO K1 cells (ECACC)
T1 sequence (Q8NER1 whole entry): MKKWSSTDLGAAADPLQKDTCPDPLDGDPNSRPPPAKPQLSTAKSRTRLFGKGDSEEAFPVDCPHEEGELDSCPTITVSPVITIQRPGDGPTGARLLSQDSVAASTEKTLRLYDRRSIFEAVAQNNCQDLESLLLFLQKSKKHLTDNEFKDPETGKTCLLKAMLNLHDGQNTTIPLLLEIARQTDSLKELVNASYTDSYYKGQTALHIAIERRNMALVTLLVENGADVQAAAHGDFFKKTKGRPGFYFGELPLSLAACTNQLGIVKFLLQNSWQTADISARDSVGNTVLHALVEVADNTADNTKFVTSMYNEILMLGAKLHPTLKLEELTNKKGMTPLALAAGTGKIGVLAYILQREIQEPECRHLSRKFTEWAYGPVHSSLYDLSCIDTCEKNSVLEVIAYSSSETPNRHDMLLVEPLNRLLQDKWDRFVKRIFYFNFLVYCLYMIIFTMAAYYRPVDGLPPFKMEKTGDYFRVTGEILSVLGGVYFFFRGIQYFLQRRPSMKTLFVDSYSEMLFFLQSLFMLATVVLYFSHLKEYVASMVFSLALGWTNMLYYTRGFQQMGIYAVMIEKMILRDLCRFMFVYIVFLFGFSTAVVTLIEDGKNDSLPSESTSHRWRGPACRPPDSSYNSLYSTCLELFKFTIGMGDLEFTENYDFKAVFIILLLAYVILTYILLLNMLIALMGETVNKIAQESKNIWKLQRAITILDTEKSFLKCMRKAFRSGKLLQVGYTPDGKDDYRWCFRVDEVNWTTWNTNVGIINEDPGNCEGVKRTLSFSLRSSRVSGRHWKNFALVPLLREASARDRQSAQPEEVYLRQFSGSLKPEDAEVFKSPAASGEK
The assay can be described thus: Functional investigation at the vanilloid receptor (VR1), FLIPR Ca2+ influx assay, Method II, hVR1. It is filed as cell-based. The note with it: for IC50: suppression of capsaicin-induced Ca2+ influx; for inhibition at 10 µM: test substance 10 μM, CHO K1 cells transfected with VR1, inhibition of Ca2+ influx after 100 nM capsaicin, compared to maximum inhibition with 10 μM capsazepin. An excerpt:
(§1) The agonistic and/or antagonistic effects of the test substances on the vanilloid receptor (VR1) can be determined with the following assay. According to this assay the Ca^2+ influx through the channel is quantified by means of a Ca^2+-sensitive dye (Type Fluo-4, Molecular Probes, Europe BV, Leyden, The Netherlands) in the Fluorescent Imaging Plate Reader (FLIPR, Molecular Devices, Sunnyvale, USA).
(§2) Chinese hamster ovary cells (CHO K1-cells, European Collection of Cell Cultures (ECACC) Great Britain) are stably transfected with the VR1 gene. For functional studies, these cells are plated on poly-D-lysine-coated, black 96-well plates with clear bottom (BD Biosciences, Heidelberg, Germany) at a density of 25 000 cells/well. The cells are incubated overnight at 37° C. and 5% CO2 in a culture medium (Nutrient Mixture Ham's F12, 10 vol. % FCS (fetal calf serum), 18 μg/ml L-proline). On the next day the cells are incubated for 30 minutes at 37° C. with Fluo-4 (Fluo-4 2 μM, Pluronic F127 0.01 vol. %, Molecular Probes) in HBSS (Hank's buffered saline solution), (Gibco Invitrogen GmbH, Karlsruhe, Germany). Then the plates are washed 3 times with HBSS buffer and, after further incubation of 15 minutes at room temperature, they are used for Ca^2+ measurement in the FLIPR. The Ca^2+-dependent fluorescence is measured before and after adding the test substances (wavelength λex=^488 nm, λem=540 nm). Quantification is based on measurement of the maximum fluorescence intensity (FC, fluorescence counts) over time.
(§3) The FLIPR protocol comprises 2 additions of the substance. First the test substances (10 μM) are pipetted onto the cells and the Ca^2+ influx is compared with the control (capsaicin 10 μM) (% activation relative to the Ca^2+ signal after adding 10 μM capsaicin). After incubation for 5 minutes, 100 nM capsaicin is applied and the influx of Ca^2+ is determined again.
(§4) Desensitizing agonists and antagonists led to suppression of Ca^2+ influx. The % inhibition is calculated compared to the maximum inhibition attainable with 10 μM capsazepin.

Another assay concerns the target T2, rVR1 (Rattus norvegicus, UniProt O35433).
T2 construct: expressed in transfected cells; host or cells: CHO K1 cells (ECACC)
The assay can be described thus: Functional investigation at the vanilloid receptor (VR1), FLIPR Ca2+ influx assay, Method II, rVR1. The format is cell-based. Conditions: for IC50: suppression of capsaicin-induced Ca2+ influx; for rVR1 10 μM Stimulation / inhibition at 10 µM: test substance 10 μM; for rVR1 10 μM Stimulation: % activation relative to the Ca2+ signal after adding 10 μM capsaicin; for inhibition at 10 µM: inhibition of Ca2+ influx after 100 nM capsaicin, compared to maximum inhibition with 10 μM capsazepin.
Excerpt: as §1, §2, §3, §4

T2 sequence (O35433 whole entry): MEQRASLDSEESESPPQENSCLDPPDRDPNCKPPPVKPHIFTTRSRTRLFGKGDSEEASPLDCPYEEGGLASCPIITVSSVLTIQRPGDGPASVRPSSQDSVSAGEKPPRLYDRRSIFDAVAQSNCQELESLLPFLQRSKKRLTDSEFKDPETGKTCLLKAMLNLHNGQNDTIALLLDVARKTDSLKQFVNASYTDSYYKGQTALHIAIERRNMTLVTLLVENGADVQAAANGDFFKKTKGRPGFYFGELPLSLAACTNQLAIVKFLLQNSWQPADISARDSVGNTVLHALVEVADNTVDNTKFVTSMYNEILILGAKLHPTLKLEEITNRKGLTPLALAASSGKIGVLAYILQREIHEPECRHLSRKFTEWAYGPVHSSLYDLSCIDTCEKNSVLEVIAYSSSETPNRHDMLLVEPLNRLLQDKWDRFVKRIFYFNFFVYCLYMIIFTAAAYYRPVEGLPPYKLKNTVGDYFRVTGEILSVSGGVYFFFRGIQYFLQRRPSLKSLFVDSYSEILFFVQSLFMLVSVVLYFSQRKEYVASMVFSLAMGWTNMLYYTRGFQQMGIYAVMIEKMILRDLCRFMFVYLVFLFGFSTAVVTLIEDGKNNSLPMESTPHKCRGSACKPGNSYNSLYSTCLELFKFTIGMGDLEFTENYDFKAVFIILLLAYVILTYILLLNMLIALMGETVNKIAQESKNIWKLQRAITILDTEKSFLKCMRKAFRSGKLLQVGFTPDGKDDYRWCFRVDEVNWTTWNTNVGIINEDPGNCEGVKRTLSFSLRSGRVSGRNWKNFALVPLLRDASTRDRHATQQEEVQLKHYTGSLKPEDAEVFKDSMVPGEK

For `CCCCCCCCCCCCCCCCOC[C@@H]1CC[C@H](COC(=O)NC(=O)NCC[N+](C)(C)C)O1` (relative stereo) [compound 13, 4-(Trimethylamino-1-ethyl)allophanic acid (cis-5-hexadecyloxymethyltetrahydrofuran-2-yl)methyl ester iodide], on hVR1, 1.1 µM corresponded to half-maximal inhibition (IC50) and the inhibition at 10 µM was determined as 80.8%. Further, at rVR1, the IC50 was 1.3 µM, the “rVR1 10 μM Stimulation” value is 0.36% and the inhibition at 10 µM came to 92.1%.
In the case of `CCCCCCCCCCCCOC(=O)NC(=O)NCC[N+](C)(C)C` [compound 1, 4-(Trimethylamino-1-ethyl)allophanic acid dodecyl ester iodide], at hVR1, half-maximal inhibition (IC50) required 2.43 µM and the inhibition at 10 µM is 95.4%. Also, on rVR1, the 50% inhibitory concentration (IC50) stood at 2.1 µM, the “rVR1 10 μM Stimulation” value is on record as 0.55% and the inhibition at 10 µM is 103%.
In the case of `CCCCCCCCCCCCCCCCOC(=O)NC(=O)NCC[N+]1(C)CCCC1` [compound 2, 4-(Pyrrolidinium-1-ethyl)allophanic acid hexadecyl ester iodide], at hVR1, the IC50 came to 0.92 µM and the inhibition at 10 µM turned out to be 88.9%. On rVR1, the midpoint of inhibition, the IC50, lay at 1.23 µM; the “rVR1 10 μM Stimulation” value was −0.02%; the inhibition at 10 µM worked out at 87.1%.
On the same counts, the results for `CCCCCCCCCCCCCCCCOC(=O)NC(=O)NCCC[N+](C)(C)C` [compound 3, 4-(Trimethylamino-1-propyl)allophanic acid hexadecyl ester iodide] are 4.27 µM, 56.9%, 1.27 µM, −0.73% and 94.4%.
For the molecule `CCCCCCCCCCCCCCCCOCC(COC(=O)NC(=O)NCC[N+](C)(C)C)OC` (centres unmarked) [compound 14, 4-(Trimethylamino-1-ethyl)allophanic acid 3-hexadecyloxy-2-methoxypropan-1-yl ester iodide], on hVR1, the 50% inhibitory concentration (IC50) came to 2.4 µM and the inhibition at 10 µM is 93.1%. At rVR1, the 50% inhibitory concentration (IC50) worked out at 1.15 µM, the “rVR1 10 μM Stimulation” value stood at 0.09% and the inhibition at 10 µM was 95.5%.
Consider `CCCCCCCCCCCCCCCCOC(=O)NC(=O)NCC[N+](C)(C)C` [compound 15, 4-(Trimethylamino-1-ethyl)allophanic acid hexadecyl ester iodide], for which, on hVR1, the half-maximal inhibitory concentration (IC50) stood at 3.45 µM and the inhibition at 10 µM worked out at 101%. Also, at rVR1, the IC50 is 2.95 µM, the “rVR1 10 μM Stimulation” value is −1.01% and the inhibition at 10 µM was found to be 109%.
On to `CCCCCCCCCCCCCCCCOCC1(COC(=O)NC(=O)NCC[N+](C)(C)C)CCCO1` (centres unmarked) [compound 16, 4-(Trimethylamino-1-ethyl)allophanic acid (2-hexadecyloxymethyltetrahydrofuran-2-yl)methyl ester iodide], for which, on hVR1, the concentration for half-maximal inhibition (IC50) amounted to 1.7 µM and the inhibition at 10 µM amounted to 68.6%. At rVR1, inhibition was half-maximal at 2.9 µM (IC50), the “rVR1 10 μM Stimulation” value came to 0.58% and the inhibition at 10 µM turned out to be 99.3%.
